Data taken from patent US11179397B2, “Imidazopyrimidine derivatives” (Gilead Sciences, Inc., priority 2018, dated 2021).
Read-outs that look alike come from different tables or passages of the source.

Assays:
[1] = target: SHP-2 full length protein (Homo sapiens (Human), UniProt Q06124); test: SHP-2 biochemical DiFMUP pseudosubstrate-fluorogenic assay; details: 0.2 nM SHP-2, 1 μM IRS-1 activator peptide, 50 μM DiFMUP; read-out: SHP2 IC50
Description: SHP-2 Biochemical Assay Materials Recombinant SHP-2 full length protein was generated in house. SHP-2 protein tyrosine phosphatase (PTP) domain protein (Catalog number SPR0217-20 ug), NaCl (Catalog number S6546-1L), and KCl (Catalog number 60142-500 mL) were purchased from Sigma-Aldrich (St. Louis, Mo.). IRS-1_[…](dPEG8)[…] peptide […]) was custom made by AnaSpec (Fremont, Calif.). DiFMUP substrate (Catalog number D6567), EDTA (Catalog number E177-500 mL), DTT (Catalog number P2325), and 384-well black polystyrene non-binding surface (Catalog number 3820) were purchased from Fisher Scientific (Hanover Park, Ill.). HEPES (Catalog number 15630-080) was purchased from Life Technologies (Pleasanton, Calif.), and Tween-20 (Catalog number 95059-250) was purchased from VWR (Radnor, Pa.). Method Inhibition of SHP-2 activity by small molecule inhibitors was monitored by a biochemical DiFMUP pseudosubstrate-fluorogenic assay. […] The reaction mix was added to the 384-well non-binding plate which had been pre-spotted with 1:3 serial diluted compounds from 10,000-0.005 nM, and incubated at room temperature for 90 min. DiFMUP substrate at final concentration of 50 μM was then added to the wells and incubated for additional 30 min at room temperature. The final reaction volume was 20 μl/well. […] The inhibitor dose response curves were generated using normalized IC50 regression curve fitting by in house dose response analysis tools. The wells with DMSO vehicle were used as controls (100% signal). The percent (%) control of SHP-2 compound was calculated as: (Compound well fluorescence counts/DMSO fluorescence counts)×100%.

NCI-H358 cells = test: NCI-H358 3D tumor spheroid growth inhibition; type: cell-based; details: 3D spheroids, 7 days, 3D CellTiter Glo, cellular IC50 designated EC50, read-out: H358 EC50
Excerpt: SHP-2 Cell Based Assay: […] Materials NCI-H358 cell line was purchased from [NT] number ATCC CRL-5807) (Manassas, Va.). RPMI-1640 (Catalog number 10-040-CM) was from Corning Cellgro (Manassas, Va.), Fetal Bovine Serum (FBS) (Catalog number SH30071.03) was from HyClone (Logan, Utanh), and 100× Penicillin/Streptomycin/L-Glutamine stock (Catalog no. 30-009-CI) and 384-well ULA plates (Catalog number 3830) were from Corning (Fremont, Calif.). Method […] At the day of assay, the cells were trypsinized and seeded at 1000 cells/70 μl/well in 384-well ULA plates and incubated at 37° C. incubator with 5% CO2 to allow spheroids to form. […] The plates were incubated for additional 7 days. Then 35 μl of medium from each well was removed, and replaced with 35 μl of 3D CellTiter Glo reagent from Promega. The wells were mixed by pipetting up and down with Biomek FX for 15 times to induce cell lysis and the plates were incubated at room temperature for additional 10 min to stabilize luminescent signal. The luminescence was then read by Envision. The inhibitor dose response curves were generated using normalized cellular IC50 (designated as EC50 in all FIGURES to distinguish from biochemical IC50s) by in house dose response analyses tools. The wells with DMSO vehicle were used as negative controls (0% inhibition). The % inhibition of SHP-2 compounds was calculated as: 100-[(Compound well luminescence counts/DMSO luminescence counts)×100%].

SMILES | IC50 [1] | EC50 (NCI-H358 cells) | EC50 (NCI-H358 cells; Homo sapiens, NCI-H358, 168 h)
Cc1nc(N2CCC3(CC2)CO[C@@H](C)[C@H]3N)n2ccnc2c1-c1cccc(Cl)c1Cl [Example 1, (3S,4S)-8-(8-(2,3-dichlorophenyl)-7-methylimidazo[1,2-c]pyrimidin-5-yl)-3-methyl-2-oxa-8-azaspiro[4.5]decan-4-amine] | 2.8 nM | – | 59 nM
Cc1nc(N2CCC3(CCC[C@H]3N)CC2)n2ccnc2c1-c1cccc2[nH]ccc12 [Example 2, (R)-8-(8-(1H-indol-4-yl)-7-methylimidazo[1,2-c]pyrimidin-5-yl)-8-azaspiro[4.5]decan-1-amine] | 47 nM | – | 590 nM
Cc1nc(N2CCC3(CCC[C@H]3N)CC2)n2ccnc2c1-c1cccc(C(F)(F)F)c1 [Example 7, (R)-8-(7-methyl-8-(3-(trifluoromethyl)phenyl)imidazo[1,2-c]pyrimidin-5-yl)-8-azaspiro[4.5]decan-1-amine] | 1300 nM | – | > 12500 nM
Cc1nc(N2CCC3(CCC[C@H]3N)CC2)n2ccnc2c1-c1cnn(C)c1C [Example 13, (R)-8-(8-(1,5-dimethyl-1H-pyrazol-4-yl)-7-methylimidazo[1,2-c]pyrimidin-5-yl)-8-azaspiro[4.5]decan-1-amine] | 1000 nM | – | 3300 nM
Cc1nc(N2CCC3(CCC[C@H]3N)CC2)n2ccnc2c1-c1cnc2ccccn12 [Example 15, (R)-8-(8-(imidazo[1,2-a]pyridin-3-yl)-7-methylimidazo[1,2-c]pyrimidin-5-yl)-8-azaspiro[4.5]decan-1-amine] | 350 nM | – | 3200 nM
Cc1nc(N2CCC3(CCC[C@H]3N)CC2)n2ccnc2c1-c1ccnc(F)c1Cl [Example 28, (R)-8-(8-(3-chloro-2-fluoropyridin-4-yl)-7-methylimidazo[1,2-c]pyrimidin-5-yl)-8-azaspiro[4.5]decan-1-amine] | 74 nM | – | 380 nM
Cc1nc(N2CCC3(CCC[C@H]3N)CC2)n2ccnc2c1-c1ccnc(N)c1Cl [Example 29, (R)-8-(8-(2-amino-3-chloropyridin-4-yl)-7-methylimidazo[1,2-c]pyrimidin-5-yl)-8-azaspiro[4.5]decan-1-amine] | 1300 nM | – | 5500 nM
C[C@@H]1OCC2(CCN(c3ncc(Sc4ccnc(N)c4Cl)c4nccn34)CC2)[C@@H]1N [Example 31, (3S,4S)-8-(8-((2-amino-3-chloropyridin-4-yl)thio)imidazo[1,2-c]pyrimidin-5-yl)-3-methyl-2-oxa-8-azaspiro[4.5]decan-4-amine] | 5 nM | – | 53 nM
Cc1nc(N2CCC3(CC2)C[C@@H](O)C[C@H]3N)n2ccnc2c1-c1cccc(Cl)c1Cl [Example 33, (2R,4R)-4-amino-8-(8-(2,3-dichlorophenyl)-7-methylimidazo[1,2-c]pyrimidin-5-yl)-8-azaspiro[4.5]decan-2-ol] | 3.1 nM | – | 32 nM
N[C@@H]1C[C@H](O)CC12CCN(c1ncc(Sc3cccc(Cl)c3Cl)c3nccn13)CC2 [Example 35, (2R,4R)-4-amino-8-(8-((2,3-dichlorophenyl)thio)imidazo[1,2-c]pyrimidin-5-yl)-8-azaspiro[4.5]decan-2-ol] | 1.2 nM | – | 32 nM
C[C@@H]1OCC2(CCN(c3ncc(Sc4cc(N)ncc4C(F)(F)F)c4nccn34)CC2)[C@@H]1N [Example 38, (3S,4S)-8-(8-((2-amino-5-(trifluoromethyl)pyridin-4-yl)thio)imidazo[1,2-c]pyrimidin-5-yl)-3-methyl-2-oxa-8-azaspiro[4.5]decan-4-amine] | 5.9 nM | – | 59 nM
NCC1CC2CN(c3ncc(Sc4cccc(Cl)c4Cl)c4nccn34)CC2C1 (centres unmarked) [Example 41, (2-(8-((2,3-dichlorophenyl)thio)imidazo[1,2-c]pyrimidin-5-yl)octahydrocyclopenta[c]pyrrol-5-yl)methanamine] | 150 nM | – | 3200 nM
NC[C@H]1[C@H]2CN(c3ncc(Sc4cccc(Cl)c4Cl)c4nccn34)C[C@@H]12 [Example 42, ((1R,5S,6r)-3-(8-((2,3-dichlorophenyl)thio)imidazo[1,2-c]pyrimidin-5-yl)-3-azabicyclo[3.1.0]hexan-6-yl)methanamine] | 80 nM | – | 1300 nM
Cc1nc(N2CCC3(CC2)Cc2cc(F)ccc2[C@H]3N)n2ccnc2c1-c1cccc(Cl)c1Cl [Example 133, (S)-1′-(8-(2,3-dichlorophenyl)-7-methylimidazo[1,2-c]pyrimidin-5-yl)-5-fluoro-1,3-dihydrospiro[indene-2,4′-piperidin]-1-amine] | – | – | 21 nM
Nc1cccc(Sc2cnc(N3CCC4(CC3)Cc3ccccc3[C@H]4N)n3ccnc23)c1Cl [Example 137, (S)-1′-(8-((3-amino-2-chlorophenyl)thio)imidazo[1,2-c]pyrimidin-5-yl)-1,3-dihydrospiro[indene-2,4′-piperidin]-1-amine] | – | – | 12 nM

Now from value to compound:

IC50 [1] | EC50 (NCI-H358 cells) | EC50 (NCI-H358 cells; Homo sapiens, NCI-H358, 168 h) | SMILES
52 nM | 970 nM | – | Cc1nc(N2CCC3(CCC[C@H]3N)CC2)n2ccnc2c1-c1cccc(Cl)c1Cl (single isomer, unassigned) [Example 10]
3.6 nM | 60 nM | – | Cc1nc(N2CCC3(CCC[C@H]3N)CC2)n2ccnc2c1-c1cccc(Cl)c1Cl (single isomer, unassigned) [Example 11]
90 nM | – | 670 nM | Cc1nc(N2CCC3(CCC[C@H]3N)CC2)n2ccnc2c1-c1ccccc1 [Example 5, (R)-8-(7-methyl-8-phenylimidazo[1,2-c]pyrimidin-5-yl)-8-azaspiro[4.5]decan-1-amine]
4.1 nM | – | 120 nM | Cc1nc(N2CCC3(CCC[C@H]3N)CC2)n2ccnc2c1-c1cccc(Cl)c1Cl [Example 9, (R)-8-(8-(2,3-dichlorophenyl)-7-methylimidazo[1,2-c]pyrimidin-5-yl)-8-azaspiro[4.5]decan-1-amine]
90 nM | – | 420 nM | Cc1nc(N2CCC3(CCC[C@H]3N)CC2)n2ccnc2c1-c1sccc1Cl [Example 12, (R)-8-(8-(3-chlorothiophen-2-yl)-7-methylimidazo[1,2-c]pyrimidin-5-yl)-8-azaspiro[4.5]decan-1-amine]
5.6 nM | – | 75 nM | Cc1nc(N2CCC3(CCC[C@H]3N)CC2)n2ccnc2c1Sc1ccnc(N)c1Cl [Example 18, (R)-8-(8-((2-amino-3-chloropyridin-4-yl)thio)-7-methylimidazo[1,2-c]pyrimidin-5-yl)-8-azaspiro[4.5]decan-1-amine]
160 nM | – | 1500 nM | Cc1nc(N2CCC3(CCC[C@H]3N)CC2)n2ccnc2c1-c1cccc(Cl)c1 [Example 23, (R)-8-(8-(3-chlorophenyl)-7-methylimidazo[1,2-c]pyrimidin-5-yl)-8-azaspiro[4.5]decan-1-amine]
95 nM | – | 1500 nM | Cc1nc(N2CCC3(CCC[C@H]3N)CC2)n2ccnc2c1-c1ccc(Cl)c(Cl)c1 [Example 25, (R)-8-(8-(3,4-dichlorophenyl)-7-methylimidazo[1,2-c]pyrimidin-5-yl)-8-azaspiro[4.5]decan-1-amine]
25 nM | – | 360 nM | Cc1nc(N2CCC3(CCC[C@H]3N)CC2)n2ccnc2c1-c1ccc(Cl)cc1Cl [Example 26, (R)-8-(8-(2,4-dichlorophenyl)-7-methylimidazo[1,2-c]pyrimidin-5-yl)-8-azaspiro[4.5]decan-1-amine]
190 nM | – | 3200 nM | NC1CC2CN(c3ncc(Sc4cccc(Cl)c4Cl)c4nccn34)CC2C1 (centres unmarked) [Example 40, 2-(8-((2,3-dichlorophenyl)thio)imidazo[1,2-c]pyrimidin-5-yl)octahydrocyclopenta[c]pyrrol-5-amine]
2.8 nM | – | 130 nM | N[C@@H]1CCCC12CCN(c1ncc(Sc3cccc(Cl)c3Cl)c3nccn13)CC2 [Example 44, (R)-8-(8-((2,3-dichlorophenyl)thio)imidazo[1,2-c]pyrimidin-5-yl)-8-azaspiro[4.5]decan-1-amine]
